According to patent EP0509470A2, “Therapeutical compositions having anti-HIV activity consisting of 2',3'-didesoxyadenosine and substances inhibiting adenosine deaminase” (REPLA CHEMICAL LTD., priority 1991, dated 1992):

How the values were obtained:
[1] = test system: HIV-1; test: Inhibition of infecting HIV production in MT4 cells (end point titration); format: cell-based; conditions: MT4 cells; for EC90: compound alone, Table 2, read-out: ED90 (the source's name)
Description: (§1) The cellular lines utilized in this study were: H9, T lymphocytes, CD4+, permissive for the HIV replication but partially resistant to its cytopathic effect; • H9/IIIB, H9 lymphocytes chronically infected by HTLV/IIIB virus; • MT4 and C8166, T lymphocytes lines, CD4+ permissive for HIV replication. In C8166 the virus induces a cytopathic effect which results in the formation of syncytia easily visible at the optical microscope.
(§2) All the lymphoid lines were cultured in RPMI 1640 containing 10 % of non decomplemented fetal calf serum (FCS), penicillin 100U/mL and streptomycin 100 µg/mL and incubated at 37 °C in 5% CO₂.
HIV virus was obtained by H9/IIIB cells surnatant taken at the end of their exponential growth.
The titre of several stock preparations was comprised between 2 and 5 x 10⁵ Cell Culture Infection Dose 50 (CCID50)/mL.
For the evaluation of the anti-HIV activity the inhibition of infecting HIV production was determined as follows.
C8166 or MT4 cells sown at a density of 1 x 10⁶ cells/ml, were infected with a multiplicity of infection (m.o.i.) comprised between 0.05 and 0.02 CCID50/cell. After two hours of incubation at 37 °C and subsequent removal of the inoculum, the cells were washed three times and resuspended at a density of 1 x 10⁵ cells/ml. in the absence or in the presence of the compounds to be investigated.
After 4 days of incubation at 37 °C the presence of syncytia was evaluated at the optical microscope and the quantity of infecting HIV present in the surnatant of the cultures was determined by end point titration.
HIV titration was carried out in C8166 cells sown at a density of 1 x 10⁵ cells/mL/well, by the limit dilution method (dilution ratio 1:2, every dilution being sown in quadruplicate).
After four days of incubation, the syncytia presence was evaluated at the microscope and the viral titre was calculated by the Reed and Muench method.

[2] = Cytotoxicity evaluation (cell number in Coulter after 96 hours); format: cell-based; conditions: human, mt4 cells; for MNTC at 96 h: MNTD
Description: as §1, §2
For the cytotoxicity evaluation, the cells were resuspended in a culture medium at a density of 1 x 10⁵/mL, were incubated in the absence or in the presence of various concentration of the compounds to be studied and their number was determined in Coulter after 96 hours of incubation at 37 °C.

SMILES: CCCCCC[C@H]([C@H](C)O)n1cnc2c(N)cccc21 (relative stereo) [1,3-dideaza-EHNA]
- EC90 [1]: > 5 µM
- CC50 at 96 h [2]: 15 µM
- MNTC at 96 h [2]: 5 µM

SMILES: CCCCCC[C@H]([C@H](C)O)n1cnc2c(N)ccnc21 (relative stereo) [1-deaza-EHNA]
- EC90 [1]: 20 µM
- CC50 at 96 h [2]: 75 µM
- MNTC at 96 h [2]: 20 µM

SMILES: CCCCCC[C@H]([C@H](C)O)n1cnc2c(N)nccc21 (relative stereo) [3-deaza-EHNA]
- EC90 [1]: > 10 µM
- enhancement of the anti-HIV-1 activity of ddAdo (10 µM) ([1]; compound used at its MNTD together with ddAdo 10 µM, Fig. 1): highest enhancing effect
- CC50 at 96 h [2]: 30 µM
- MNTC at 96 h [2]: 10 µM

SMILES: CCCCCC[C@H]([C@H](C)O)n1ccc2c(N)ncnc21 (relative stereo) [7-deaza-EHNA]
- EC90 [1]: > 5 µM
- CC50 at 96 h [2]: 50 µM
- MNTC at 96 h [2]: 5 µM
